From publication PMC11520566, “Discovery of pyrazole-based analogs as CDK2 inhibitors with apoptotic-inducing activity: design, synthesis and molecular dynamics study” (RSC Advances, 2024)

Experiments:
Type in all cases: cell-based, human
[1] = test system: MOLT-4; test: NCI 60 five dose assay, Leukemia
[2] = test system: NCI-H226; test: NCI 60 five dose assay, Non-small cell lung cancer
[3] = test system: COLO 205; test: NCI 60 five dose assay, Colon cancer
[4] = test system: HCT-15; test: NCI 60 five dose assay, Colon cancer
[5] = test system: HT29; test: NCI 60 five dose assay, Colon cancer
[6] = test system: M14; test: NCI 60 five dose assay, Melanoma
[7] = test system: MDA-MB-231/ATCC; test: NCI 60 five dose assay, Breast cancer
[8] = Homo sapiens, read-out: LC50 (the source's name)

CC(=NNc1ccc(S(N)(=O)=O)cc1)c1ccc(NN=C2C(=O)NN=C2Nc2ccccc2)cc1 [Compound 4, 4-(2-(1-(4-(2-(5-oxo-3-(phenylamino)-1,5-dihydro-4H-pyrazol-4-ylidene)hydrazinyl)phenyl)ethylidene)hydrazinyl)benzene sulfonamide]
GI50 ([1]; Homo sapiens): 1.64 µM
CC50 [1, 8]: 34.9 µM
Percent Growth ([1]; Log10 Concentration -4.0 Molar): -69%
Percent Growth ([1]; Log10 Concentration -5.0 Molar): -28%
Percent Growth ([1]; Log10 Concentration -6.0 Molar): 71%
Percent Growth ([1]; Log10 Concentration -7.0 Molar): 95%
Percent Growth ([1]; Log10 Concentration -8.0 Molar): 96%
GI50 ([2]; Homo sapiens): 3.31 µM
CC50 [2, 8]: 35.1 µM
Percent Growth ([2]; Log10 Concentration -4.0 Molar): -100%
Percent Growth ([2]; Log10 Concentration -5.0 Molar): 10%
Percent Growth ([2]; Log10 Concentration -6.0 Molar): 93%
Percent Growth ([2]; Log10 Concentration -7.0 Molar): 102%
Percent Growth ([2]; Log10 Concentration -8.0 Molar): 96%
GI50 ([3]; Homo sapiens): 3.28 µM
CC50 [3, 8]: 34.6 µM
Percent Growth ([3]; Log10 Concentration -4.0 Molar): -100%
Percent Growth ([3]; Log10 Concentration -5.0 Molar): 9%
Percent Growth ([3]; Log10 Concentration -6.0 Molar): 94%
Percent Growth ([3]; Log10 Concentration -7.0 Molar): 105%
Percent Growth ([3]; Log10 Concentration -8.0 Molar): 101%
GI50 ([4]; Homo sapiens): 5.29 µM
CC50 [4, 8]: 42.9 µM
Percent Growth ([4]; Log10 Concentration -4.0 Molar): -100%
Percent Growth ([4]; Log10 Concentration -5.0 Molar): 36%
Percent Growth ([4]; Log10 Concentration -6.0 Molar): 87%
Percent Growth ([4]; Log10 Concentration -7.0 Molar): 98%
Percent Growth ([4]; Log10 Concentration -8.0 Molar): 99%
GI50 ([5]; Homo sapiens, HT-29): 3.58 µM
CC50 ([5]; Homo sapiens, HT-29, read-out: LC50 (the source's name)): 34 µM
Percent Growth ([5]; Log10 Concentration -4.0 Molar): -100%
Percent Growth ([5]; Log10 Concentration -5.0 Molar): 7%
Percent Growth ([5]; Log10 Concentration -6.0 Molar): 104%
Percent Growth ([5]; Log10 Concentration -7.0 Molar): 117%
Percent Growth ([5]; Log10 Concentration -8.0 Molar): 100%
GI50 ([6]; Homo sapiens): 2.83 µM
CC50 [6, 8]: 35.1 µM
Percent Growth ([6]; Log10 Concentration -4.0 Molar): -80%
Percent Growth ([6]; Log10 Concentration -5.0 Molar): -14%
Percent Growth ([6]; Log10 Concentration -6.0 Molar): 103%
Percent Growth ([6]; Log10 Concentration -7.0 Molar): 101%
Percent Growth ([6]; Log10 Concentration -8.0 Molar): 93%
GI50 ([7]; Homo sapiens): 2 µM
CC50 [7, 8]: 8.28 µM
Percent Growth ([7]; Log10 Concentration -4.0 Molar): -100%
Percent Growth ([7]; Log10 Concentration -5.0 Molar): -63%
Percent Growth ([7]; Log10 Concentration -6.0 Molar): 99%
Percent Growth ([7]; Log10 Concentration -7.0 Molar): 99%
Percent Growth ([7]; Log10 Concentration -8.0 Molar): 95%
